Measurements from patent US20130287807A1, “COMPOUNDS FOR TREATING SYMPTOMS ASSOCIATED WITH PARKINSON'S DISEASE” (priority 2008, published 2013).
Ends that are not written are not given here.

How the values were obtained:
[1] = system: monoclonal antibody MV-002; test: In vitro binding assay (ELISA), BSA-coupled peptides, parental antibody MV-002; parameters: species or system C57/B16 mice; settings: Table 1 (MV-002); peptide-BSA on plate, compared to original epitope
Procedure, shortened: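 BSA-conjugated phage-display peptides and variants coated on ELISA plates at 1 μM, then incubated with the monoclonal antibody used for the screen. Binding capacity given as 1:X, the dilution factor of the parental antibody; Ac- marks acetylated amino acids.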

[2] = system: monoclonal antibody MV-002; test: In vitro inhibition assay (ELISA), MV-002 binding to original epitope; parameters: species or system C57/B16 mice; settings: for inhibition of binding of monoclonal antibody in in vitro competition experiments: MV-002 mimotopes; for Inhibition Capacity: Table 2 (MV-002), OD at 5 ug peptide compared to original peptide
Procedure: Different amounts of peptides (concentrations ranging from 10 μg to 0.08 μg; serial dilutions; for MV-002: concentrations ranging from 5 μg to 0.03 μg; serial dilutions), derived from Phage Display were incubated with the monoclonal antibody that was used for the screening procedure. Peptides diminishing subsequent binding of the antibody to the original epitope coated on ELISA plates were considered as inhibiting in this assay.
Legend to Table 2: the inhibition capacity is coded by the following code: Weak inhibition means more peptide is required to lower AB binding than with the original epitope; strong inhibition means similar peptide amounts are required for mimotope and original epitope for lowering AB binding. Mimotopes are compared to the original peptide as standard. OD at 5 ug peptide used in the assay is used to calculate the competition capacity compared to original peptide.

[3] = system: injected peptide (mimotope-BSA conjugate); test: Mimotope vaccination, serum titer ELISA against injected peptide; assay type: in vivo, C57/B16 mice; settings: 30 μg peptide-KLH s.c. with alum, anti-mouse IgG
Procedure: (§1) Inhibiting as well as non-inhibiting peptides were coupled to KLH and injected into mice (wildtype C57/B16 mice; subcutaneous injection into the flank) together with an appropriate adjuvant (aluminium hydroxide). Animals were vaccinated 3-6 times in biweekly intervals and sera were taken biweekly as well. Titers to injected peptides, as well as to an irrelevant peptide were determined with every serum. Furthermore, titers against the recombinant human Aβ protein, and against original peptides were determined respectively. In general sera were analysed by reaction against peptides coupled to Bovine Serum Albumin (BSA) and recombinant full length proteins which were immobilised on ELISA plates. Titers were determined using anti mouse IgG specific antibodies. For detailed results see FIGS. 15, 16 and 17 respectively and FIGS. 23, 24 and 25 respectively.
(§2) Female C57/b16 mice, 5-6 mice per group, were subcutaneously immunized with 30 μg peptide coupled to KLH. Control groups were administered original epitope-KLH conjugates respectively. As adjuvant alum was used (always 1 mg per mouse). […] The in vitro ELISA assay to determine the antibody titer was performed with sera of single mice after each vaccination in a two week interval (see FIGS. 15 and 16 respectively). The wells of the ELISA plate were coated with mimotope-BSA conjugate and an irrelevant peptide-BSA conjugate (negative control). The positive control was performed by reaction of the parental antibody with the respective mimotope-BSA conjugate. The detection was performed with anti-mouse IgG. Additionally, recombinant proteins were immobilised on ELISA plates and sera reacted accordingly. FIGS. 15 to 17 show representative examples for assays used to characterise mimotopes in vivo.
as §2, with “FIGS. 25” for “FIGS. 15”, “and 26” for “and 16”, “respectively). Titers were calculated as OD max/2 in all figures shown.” for “respectively).”, “FIGS. 23, 24 and 25” for “FIGS. 15 to 17”

[4] = system: irrelevant peptide p1454; test: Mimotope vaccination, serum titer ELISA against irrelevant peptide; assay type: in vivo, C57/B16 mice; settings: 30 μg peptide-KLH s.c. with alum
Procedure: as §1, §2
as §2, with “FIGS. 25” for “FIGS. 15”, “and 26” for “and 16”, “respectively). Titers were calculated as OD max/2 in all figures shown.” for “respectively).”, “FIGS. 23, 24 and 25” for “FIGS. 15 to 17”

[5] = system: p4377; test: Mimotope vaccination, serum ELISA against p4377; assay type: in vivo, C57/B16 mice; settings: peptide-KLH vaccines with alum; FIG. 24
Procedure: as §1
as §2, with “FIGS. 25” for “FIGS. 15”, “and 26” for “and 16”, “respectively). Titers were calculated as OD max/2 in all figures shown.” for “respectively).”, “FIGS. 23, 24 and 25” for “FIGS. 15 to 17”

[6] = system: Aβ/truncated/modified forms; test: In vivo characterisation of mimotopes: detection of Aβ/truncated/modified forms; parameters: species or system C57/B16 mice; key: +: All peptides listed in table 4 mount specific immune reactions against full length and/or truncated and modified forms of Aβ or fragments thereof; settings: Table 4, MV-002 derived mimotopes
Procedure: as §1, §2
as §2, with “FIGS. 25” for “FIGS. 15”, “and 26” for “and 16”, “respectively). Titers were calculated as OD max/2 in all figures shown.” for “respectively).”, “FIGS. 23, 24 and 25” for “FIGS. 15 to 17”

[7] = target: monoclonal antibody MV-001; test: ELISA on peptide-BSA; code 1 = weak binding, OD halfmax 1:<4000
[8] = target: monoclonal antibody MV-002; test: ELISA on peptide-BSA; code 2 = medium binding, OD halfmax 1:40000-320000
[9] = target: monoclonal antibody MV-001; test: inhibition ELISA, competitor coated original epitope p4371; code 1 = weaker than original epitope

Molecule: HMRLFFNC [p4670]
- Binding Capacity [1]: 3 (strong binding :>320000)
- inhibition of binding of monoclonal antibody in in vitro competition experiments [2]: active in in vitro inhibition assays
- Inhibition Capacity [2]: 1 (Weaker than original epitope (OD of peptide below 4, 6 times of original peptide))
- immune response against injected peptide [3]: elicited immune responses
- immune response against unrelated sequence (p1454) [4]: failed to induce a relevant unspecific immune response
- immune response against original epitope p4377 [5]: mounted detectable immune responses
- Detection of Aβ/truncated/modified forms [6]: +

Molecule: SHTRLYFC [p4403]
- Binding Capacity [1]: 1 (weak binding :<40000)
- inhibition of binding of monoclonal antibody in in vitro competition experiments [2]: without inhibition capacity
- immune response against injected peptide [3]: elicited immune responses
- immune response against unrelated sequence (p1454) [4]: failed to induce a relevant unspecific immune response
- immune response against original epitope p4377 [5]: mounted detectable immune responses
- Detection of Aβ/truncated/modified forms [6]: +

Molecule: EVHHQKLVFC [p4377, reference compound]
- immune response against injected peptide [3]: elicited immune responses
- immune response against unrelated sequence (p1454) [4]: failed to induce a relevant unspecific immune response
- immune response against original epitope p4377 [5]: mounted detectable immune responses

Molecule: GEIYFERC [p4681]
- Binding Capacity [1]: 3 (strong binding :>320000)
- inhibition of binding of monoclonal antibody in in vitro competition experiments [2]: active in in vitro inhibition assays
- Inhibition Capacity [2]: 2 (strong inhibition (as original epitope; OD of peptide below 2, 3 times of original peptide))
- immune response against injected peptide [3]: elicited immune responses
- immune response against unrelated sequence (p1454) [4]: failed to induce a relevant unspecific immune response
- immune response against original epitope p4377 [5]: mounted detectable immune responses
- Detection of Aβ/truncated/modified forms [6]: +

Molecule: HQKMIFAC [p4675]
- Binding Capacity [1]: 3 (strong binding :>320000)
- inhibition of binding of monoclonal antibody in in vitro competition experiments [2]: active in in vitro inhibition assays
- Inhibition Capacity [2]: 2 (strong inhibition (as original epitope; OD of peptide below 2, 3 times of original peptide))
- immune response against injected peptide [3]: elicited immune responses
- immune response against unrelated sequence (p1454) [4]: failed to induce a relevant unspecific immune response
- immune response against original epitope p4377 [5]: mounted detectable immune responses
- Detection of Aβ/truncated/modified forms [6]: +

Molecule: GEIWFEGC [p4680]
- Binding Capacity [1]: 3 (strong binding :>320000)
- inhibition of binding of monoclonal antibody in in vitro competition experiments [2]: active in in vitro inhibition assays
- Inhibition Capacity [2]: 2 (strong inhibition (as original epitope; OD of peptide below 2, 3 times of original peptide))
- immune response against injected peptide [3]: elicited immune responses
- immune response against unrelated sequence (p1454) [4]: failed to induce a relevant unspecific immune response
- immune response against original epitope p4377 [5]: mounted detectable immune responses
- Detection of Aβ/truncated/modified forms [6]: +

Molecule: TSTEMWHC [p4754]
- OD halfmax 1:X (dilution factor of the parental antibody at half-maximal OD) (dilutionfactor(1:x)) [7]: < 4000

Molecule: HQKMIFC [p4794]
- OD halfmax dilution factor of the parental antibody (1:X) (dilutionfactor(1:x)) [8]: 40000 to 320000

Molecule: GTLIFHHC [p4695]
- OD halfmax dilution factor of the parental antibody (1:X) (dilutionfactor(1:x)) [8]: 40000 to 320000

Molecule: GEIRFELC [p4796]
- OD halfmax dilution factor of the parental antibody (1:X) (dilutionfactor(1:x)) [8]: 40000 to 320000

Molecule: GSLFFWPC [p4688]
- OD halfmax dilution factor of the parental antibody (1:X) (dilutionfactor(1:x)) [8]: 40000 to 320000

Molecule: GQIIFQSC [p4668]
- OD halfmax dilution factor of the parental antibody (1:X) (dilutionfactor(1:x)) [8]: 40000 to 320000

Molecule: NWFPHPC [p4392]
- OD halfmax 1:X (dilution factor of the parental antibody at half-maximal OD) (dilutionfactor(1:x)) [7]: < 4000
- OD at 10 ug peptide relative to OD of original peptide (inhibition ELISA) [9]: 2 to 3 fold

Molecule: Ac-GEIYFERC [p4804]
- OD halfmax dilution factor of the parental antibody (1:X) (dilutionfactor(1:x)) [8]: 40000 to 320000

Molecule: GELFFEKC [p4795]
- OD halfmax dilution factor of the parental antibody (1:X) (dilutionfactor(1:x)) [8]: 40000 to 320000
